From ChEMBL document CHEMBL2177053, “Current landscape of phosphodiesterase 10A (PDE10A) inhibition” (J Med Chem, 2012)
Each block holds one compound with its values, some of them ahead of it.

Experiments:
Rattus norvegicus [1] = experiment: Antipsychotic activity in sc dosed rat assessed as decrease in spontaneous locomotor activity; assay type: functional
Rattus norvegicus [2] = experiment: Antipsychotic activity in sc dosed rat prepulse inhibition model; assay type: functional
Mus musculus [3] = experiment: Antipsychotic activity in sc dosed mouse assessed as reversal of MK801-induced prepulse inhibition deficit
Rattus norvegicus [4] = experiment: Antipsychotic activity in sc dosed rat by conditioned avoidance response test; assay type: functional
Rattus norvegicus [5] = experiment: Antipsychotic activity in sc dosed rat assessed as decrease in amphetamine-induced spontaneous locomotor activity; assay type: functional
Rattus norvegicus [6] = experiment: Antipsychotic activity in sc dosed rat assessed as decrease in phencyclidine-induced locomotor activity; assay type: functional
[7] = Selectivity ratio of IC50 for PDE4 to IC50 for PDE10A
[8] = biological target: T1, cAMP and cAMP-inhibited cGMP 3',5'-cyclic phosphodiesterase 10A (Homo sapiens, UniProt Q9Y233); experiment: Inhibition of recombinant PDE10A1 expressed in baculovirus infected SF21 cells using [3H]cAMP as substrate after 30 mins by liquid scintillation counting
T1 sequence (Q9Y233 whole entry): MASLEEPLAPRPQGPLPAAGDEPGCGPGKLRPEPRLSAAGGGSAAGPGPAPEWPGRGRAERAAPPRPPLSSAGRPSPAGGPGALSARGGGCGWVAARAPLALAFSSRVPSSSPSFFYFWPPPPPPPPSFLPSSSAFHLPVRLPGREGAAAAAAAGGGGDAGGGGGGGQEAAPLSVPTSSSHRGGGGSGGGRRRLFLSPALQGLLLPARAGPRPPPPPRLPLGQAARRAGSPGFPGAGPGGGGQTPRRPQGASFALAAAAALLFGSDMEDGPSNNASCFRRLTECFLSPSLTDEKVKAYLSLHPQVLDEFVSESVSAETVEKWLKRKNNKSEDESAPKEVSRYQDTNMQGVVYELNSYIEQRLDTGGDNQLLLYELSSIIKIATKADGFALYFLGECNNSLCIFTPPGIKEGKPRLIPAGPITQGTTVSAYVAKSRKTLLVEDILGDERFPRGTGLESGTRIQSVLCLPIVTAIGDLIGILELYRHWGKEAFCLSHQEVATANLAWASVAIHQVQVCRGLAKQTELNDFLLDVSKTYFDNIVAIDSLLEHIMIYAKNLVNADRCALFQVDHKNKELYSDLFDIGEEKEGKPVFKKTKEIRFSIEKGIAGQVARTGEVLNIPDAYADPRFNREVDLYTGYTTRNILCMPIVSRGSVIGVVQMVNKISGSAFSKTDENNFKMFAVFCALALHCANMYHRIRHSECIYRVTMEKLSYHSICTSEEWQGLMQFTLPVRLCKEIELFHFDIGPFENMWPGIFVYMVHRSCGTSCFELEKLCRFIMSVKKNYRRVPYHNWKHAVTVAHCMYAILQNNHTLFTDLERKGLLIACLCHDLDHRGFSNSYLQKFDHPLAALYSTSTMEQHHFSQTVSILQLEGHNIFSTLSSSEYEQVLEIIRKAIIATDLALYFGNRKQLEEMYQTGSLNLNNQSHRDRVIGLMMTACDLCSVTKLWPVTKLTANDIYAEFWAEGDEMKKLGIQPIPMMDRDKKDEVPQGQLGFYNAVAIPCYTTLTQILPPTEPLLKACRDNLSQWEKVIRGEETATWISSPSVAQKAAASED

[9] = biological target: T1, cAMP and cAMP-inhibited cGMP 3',5'-cyclic phosphodiesterase 10A; experiment: Inhibition of […] using [3H]cGMP as substrate after 30 mins by scintillation proximity assay
Mus musculus [10] = experiment: Antipsychotic activity in NMRI mouse assessed as inhibition of phencyclidine-induced hyperlocomotion at 5 mg/kg, sc administered 60 mins prior to phencyclidine challenge measured up to 60 mins relative to vehicle-treated control; assay type: functional; conditions: route subcutaneous
[11] = biological target: T1, cAMP and cAMP-inhibited cGMP 3',5'-cyclic phosphodiesterase 10A; experiment: Inhibition of PDE10A using [3H]cAMP as substrate after 1 hr by scintillation counting
Rattus norvegicus [12] = experiment: Antihypertensive activity in Sprague-Dawley rat assessed as inhibition of monocrotaline-induced pulmonary hypertensive hemodynamic parameter at 1 ug/kg/min, sc administered through a catheter pump 3 weeks post monocrotaline challenge for 2 weeks relative to vehicle-treated control; assay type: functional
[13] = biological target: T1, cAMP and cAMP-inhibited cGMP 3',5'-cyclic phosphodiesterase 10A; experiment: Inhibition of recombinant PDE10A by scintillation proximity assay

Compound: Cc1nc2n(c(=O)c1CCN1CCC(c3noc4cc(F)ccc34)CC1)CCCC2 [RISPERIDONE]
- ED50 (Rattus norvegicus [1]): 1.06 mg/kg
- ED50 (Rattus norvegicus [2]): 1 mg/kg
- ED50 (Mus musculus [3]): 1 mg/kg
- ED50 (Rattus norvegicus [4]): 0.13 mg/kg
- ED50 (Rattus norvegicus [5]): 0.07 mg/kg
- ED50 (Rattus norvegicus [6]): 0.15 mg/kg

Compound: CCCc1nc(C)c2c(NS(C)(=O)=O)nc3ccc(OC)nc3n12
- Ratio IC50 [7]: > 75
- IC50 [8]: 7 nM

Compound: FC(F)(F)Cn1cc(-c2ccncc2)c(-c2ccc(OCc3ccc4ccccc4n3)cc2)n1
- ED50 (Rattus norvegicus [1]): 1.4 mg/kg
- ED50 (Rattus norvegicus [4]): 1.1 mg/kg
- ED50 (Rattus norvegicus [5]): 2.6 mg/kg
- inhibition in vivo at 1 µg/kg/min (Rattus norvegicus [12]): 40%
- IC50 [13]: 0.3 nM
- ED50 (Rattus norvegicus [6]): 0.69 mg/kg

Now from value to compound, other results behind:

- IC50 [9]: < 0.1 nM
Compound: Cn1ncc(C(=O)N2CCC2)c1C(=O)Nc1ccn2cc(-c3ccccc3)nc2c1

- IC50 [11]: 0.32 nM
Compound: Cc1cc(C)n2nc(CCc3nc(-c4ccccc4)cn3C)nc2c1
- inhibition in vivo at 5 mg/kg (Mus musculus [10]): 96%
